Assays:
[1] = test system: 3T3-L1 cells; assay: Adiponectin concentration in culture supernatant of 3T3-L1 cells (LANCE method); format: cell-based, mouse; details: for Concentration of adiponectin in the case of adding one kind of amino acids to Zero medium: 3T3-L1 culture supernatant after 72 hour incubation, amino acid at fourfold of that in Full medium, average values, N=2, Zero medium 61; for concentration of adiponectin in the culture supernatant in mediums to which the amino acid was added: amino acid added to Zero medium at fourfold of Full medium; for concentration of adiponectin in the culture supernatant in mediums to which the amino acid was added / concentration of adiponectin in mediums without the amino acid: 72 hour incubation; for concentration of adiponectin in mediums without the amino acid: amino acid removed from Full medium; for production of adiponectin as compared with Zero medium (FIG. 1): 3T3-L1 cells, 72 hours, amino acid concentration changed in Zero medium, mixture equimolar
Description: 3T3-L1 cells were suspended in D-MEM medium containing 10% fetal bovine serum to become 1.5×10^5 cells/mL and seeded. After the incubation in the CO2 incubator at 37° C. for 72 hours, the medium was removed by suction. Then, the medium was exchanged for D-MEM medium containing 10 ug/mL of insulin, 1 uM of dexamethazone, 0.5 mM of IBMX (3-isobutyl-1-methylxanthine) and 10% fetal bovine serum, and further incubated in the CO2 incubator at 37° C. for 48 hours. After removing the medium, it was further exchanged for the medium wherein the concentrations of amino acids were changed, with addition of 10% dialyzed fetal bovine serum (F-0392, by SIGMA), and further incubated in CO2 incubator at 37° C. for 72 hours.
D-MEM medium contains, as amino acids, 30 mg/L of glycine (Gly); 35.6 mg/L of alanine (Ala); 42 mg/L of serine (Ser); 95 mg/L of threonine (Thr); 63 mg/L of cysteine (Cys)/2HCl; 30 mg/L of methionine (Met); 1168 mg/L of glutamine (Gln); 52.8 mg/L of asparagine (Asn); 58.8 mg/L of glutaminic acid (Glu); 106.4 mg/L of asparaginic acid (Asp); 94 mg/L of valine (Val); 105 mg/L of leucine (Leu); 105 mg/L of isoleucine (Ile); 66 mg/L of phenylalanine (Phe); 208 mg/L of tylosin (Tyr)/2Na/2H2O; 16 mg/L of triptophan (Trp); 146 mg/L of lysine (Lys)/HCl; 84 mg/L of arginine (Arg); 42 mg/L of histidine (His)/HCl/H2O; and 46 mg/L of proline (Pro). Regarding the expression of the mediums, for example, Δ Met indicates the medium having the same compositions of vitamins and salts as those of D-MEM medium and said medium wherein one kind of amino acids, methionine (Met), is removed. Full medium indicates the one containing all amino acids, and Zero medium indicates the one removing all amino acids.
Eu (Europium) chelate labeling of anti-mouse adiponectin antibody (AF1119, by R&D Systems) was conducted by using 100 ug of LANCE Eu-W1024-ITC chelate (AD0013 by Perkin Elmer), which is a Eu chelate labeling reagent, to 200 μg of the antibody in accordance with the method described in the manual. Biotin labeling of anti-mouse adiponectin antibody (AF1119, by R&D Systems) was conducted by using 26.8 ug of NHS-Biotin (1418165, Biotin Labeling Kit, by Boehringer Mannheim), which is a biotin labeling reagent, to 100 μg of the antibody in accordance with the method described in the manual.
The amount of adiponectin in the cell culture supernatant was measured as follows. The culture supernatant was diluted tenfold with TBS (Tris-buffered saline; 20 mM Tris-HCl pH7.4, 0.15M NaCl) containing 0.1% bovine serum albumin (BSA), and 10 μL thereof was mixed with 300 ng/mL of the Eu chelate labeled antibody, 300 ng/mL of the biotin labeled antibody and 10 μL of a solution (TBS containing 0.1% BSA) containing 2.5 μg/mL of Streptavidin-APC (AD0201, by Perkin Elmer) on the 384-well plate. After preserving the mixture at room temperature for 2 days, LANCE count was measured by using ARVO-SX multilabel counter (by Perkin Elmer) in accordance with the protocol of the LANCE method. At the same time, the mouse adiponectin preparation (8060-K, by LINCO) was also measured, and the concentration of adiponectin in the culture supernatant was calculated from the calibration curve of the preparation.

[2] = test system: ob/ob mice; assay: Non-fasting blood glucose of ob/ob mice given experimental diets; format: in vivo, mouse; details: experimental diet containing 4%, 17 days
Description: (§1) Male ob/ob mice of 5 week old (purchased from Charles River Laboratories Japan, Inc.) were preliminarily fed by a basic diet containing 25% by weight ratio of fats. Then, they were divided into groups so that their body weights and non-fasting blood glucose were the same between the groups. The used basic diet contained 17% by weight of casein and 48% by weight of starch in addition to 25% of lipids. Then, an experimental diet (containing 25% of fats) containing 4% of BCAA (its composition is a mixture of Leu, Ile and Val; their weight ratio is […]=1:1:1), Leu or Ile was provided to them. The control group was given an experimental diet wherein casein was increased by 4% from the basic diet instead of the amino acids (Control Group). As for the composition of each experimental diet, the starch content was adjusted so that each calorie per unit weight became the same. On the 17th day of provision of the experimental diet, their blood was collected and their blood glucose was measured to determine the adiponectin concentration in plasma. […] After extracting RNA, adiponectin mRNA was determined. The blood glucose of a mouse was measured by collecting 6 μL of its blood from the caudal vein and using a Fuji […] system (produced by FUJIFILM Medical Co., Ltd.). The adiponectin concentration in plasma was measured by the following method.

[3] = test system: ob/ob mice; assay: Adiponectin concentration in plasma of ob/ob mice given experimental diets; format: in vivo, mouse; details: experimental diet containing 4%, 17 days
Description: as §1, with “As for the composition of each experimental diet, the starch content was adjusted so that each calorie per unit weight became the same.” left out, “method. […] After leaving the mixture at room temperature for 2 days, LANCE count was measured by using ARVO-SX multilabel counter (by Perkin Elmer) in accordance with the protocol of the LANCE method. […]” for “method.”

[4] = test system: adiponectin mRNA; assay: Adiponectin mRNA in subcutaneous fats of ob/ob mice given experimental diets; format: in vivo, mouse; details: 23rd day of 4% diet, amended with β-actin mRNA
Description: Male ob/ob mice of 5 week old (purchased from Charles River Laboratories Japan, Inc.) were preliminarily fed by a basic diet containing 25% by weight ratio of fats. Then, they were divided into groups so that their body weights and non-fasting blood glucose were the same between the groups. The used basic diet contained 17% by weight of casein and 48% by weight of starch in addition to 25% of lipids. Then, an experimental diet (containing 25% of fats) containing 4% of BCAA (its composition is a mixture of Leu, Ile and Val; their weight ratio is Leu:Ile:Val=1:1:1), Leu or Ile was provided to them. The control group was given an experimental diet wherein casein was increased by 4% from the basic diet instead of the amino acids (Control Group). As for the composition of each experimental diet, the starch content was adjusted so that each calorie per unit weight became the same. On the 17th day of provision of the experimental diet, their blood was collected and their blood glucose was measured to determine the adiponectin concentration in plasma. Further, on the 23rd day after starting the provision of the experimental food, autopsy was conducted, and subcutaneous fats were collected to freeze for preservation. After extracting RNA, adiponectin mRNA was determined. […]

Compound | Concentration of adiponectin in the case of adding one kind of amino acids to Zero medium [1] [ng/mL] | concentration of adiponectin in the culture supernatant in mediums to which the amino acid was added [1] | concentration of adiponectin in mediums without the amino acid [1] | production of adiponectin as compared with Zero medium (FIG. 1) [1] | non-fasting blood glucose as compared with before the start of providing the diet (FIG. 2) [2] | adiponectin concentration in plasma as compared with before the start of providing the diet (FIG. 3) [3] | amount of adiponectin mRNA in adipose tissues (FIG. 5) [4]
C[C@H](N)C(=O)O [Ala, alanine] | 98 | increased | – | – | – | – | –
N[C@@H](CS)C(=O)O [Cys, cysteine] | 83 | increased | significantly decreased | – | – | – | –
NC(=O)CC[C@H](N)C(=O)O [Gln, glutamine] | 21 | – | – | – | – | – | –
CC[C@H](C)[C@H](N)C(=O)O [Ile, isoleucine] | 119 | increased | – | increase of the production of adiponectin was seen | significantly decreased | tended to increase | tended to increase
CC(C)C[C@H](N)C(=O)O [Leu, leucine] | – | – | – | increase of the production of adiponectin was seen | significantly decreased | tended to increase | tended to increase
CSCC[C@H](N)C(=O)O [Met, methionine] | 66 | – | significantly decreased | – | – | – | –
CC(C)[C@H](N)C(=O)O [Val, valine] | 83 | increased | significantly decreased | increase of the production of adiponectin was seen | – | – | –

— patent US20090012168A1, “ADIPONECTION INDUCERS OR SECRETAGOGUES” (AJINOMOTO CO., INC., priority 2004, published 2009)
